Consider 54 molecules from ChEMBL document CHEMBL1132223, “Quantitative structure-activity relationship of human neutrophil collagenase (MMP-8) inhibitors using comparative molecular field analysis and X-ray structure analysis” (J Med Chem, 1999).

In general, IC50 refers to the midpoint of a concentration-inhibition curve. Low values mean greater potency in that assay, high ones weaker potency in that assay.

In this test the target is Neutrophil collagenase (Homo sapiens, UniProt P22894). Briefly: Inhibition of human neutrophil collagenase [Matrix Metalloprotease-8, MMP-8].
Sequence of Neutrophil collagenase (P22894 whole entry): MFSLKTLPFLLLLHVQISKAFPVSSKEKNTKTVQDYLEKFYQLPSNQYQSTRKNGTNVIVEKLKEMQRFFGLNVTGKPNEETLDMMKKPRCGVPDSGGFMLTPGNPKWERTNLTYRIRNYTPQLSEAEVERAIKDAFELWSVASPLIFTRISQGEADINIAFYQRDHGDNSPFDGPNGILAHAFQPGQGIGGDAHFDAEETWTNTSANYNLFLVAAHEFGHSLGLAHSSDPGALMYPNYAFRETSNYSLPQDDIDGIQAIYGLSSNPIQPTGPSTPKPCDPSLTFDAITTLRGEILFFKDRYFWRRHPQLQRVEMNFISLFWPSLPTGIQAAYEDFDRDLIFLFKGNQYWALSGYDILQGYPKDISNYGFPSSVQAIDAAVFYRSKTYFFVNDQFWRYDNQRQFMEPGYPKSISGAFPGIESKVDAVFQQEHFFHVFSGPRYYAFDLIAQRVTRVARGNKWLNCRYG

For `CSc1nccc(-c2ccc(S(=O)(=O)N3Cc4ccccc4C[C@@H]3C(=O)C(=O)O)s2)n1`, inhibition was half-maximal at 1 µM (IC50). The result for `O=C(NO)[C@H]1Cc2ccccc2CN1S(=O)(=O)CCc1ccncc1` reads 0.03 µM.

`CSc1nccc(-c2ccc(S(=O)(=O)N3Cc4ccccc4C[C@@H]3C(=O)NO)s2)n1` returned an IC50 of 0.02 µM. Molecule `CCCCOc1ccc(S(=O)(=O)N2Cc3ccccc3C[C@@H]2C(=O)NO)cc1` registered an IC50 of 0.002 µM. Against the preceding molecule, the IC50 is about 10-fold lower.

Consider `O=C(O)C(=O)[C@H]1Cc2ccccc2CN1S(=O)(=O)c1ccc2oc3ccccc3c2c1`, for which half-maximal inhibition (IC50) required 0.5 µM. For `COc1ccc(S(=O)(=O)N2Cc3cc(NC(=O)[C@H](CC(=O)OC(C)(C)C)NC(=O)OCc4ccccc4)ccc3C[C@H]2C(=O)NO)cc1`, the IC50 is 0.01 µM. Regarding `O=C(O)C(=O)[C@H]1Cc2ccccc2CN1S(=O)(=O)c1ccc(-c2ccon2)s1`, the IC50 was found to be 0.6 µM. This IC50 lies about 60-fold higher than the previous one. The molecule `O=C(NO)[C@H]1Cc2ccccc2CN1S(=O)(=O)c1ccc2[nH]c(-c3ccccc3)nc2c1` registered an IC50 of 0.04 µM. For the molecule `O=C(O)C(=O)[C@H]1Cc2ccccc2CN1S(=O)(=O)c1ccc(/C=C/c2ccccc2)cc1`, the IC50 is 0.06 µM. In the case of `O=C(NO)[C@H]1Cc2ccccc2CN1S(=O)(=O)c1ccc(-c2ccon2)s1` it was 0.008 µM; in that of `CNC(=O)c1ccc(Oc2ccc(S(=O)(=O)N3Cc4ccccc4C[C@@H]3C(=O)C(=O)O)cc2)cc1`, 0.04 µM. As to `COc1ccc(S(=O)(=O)N2Cc3cc([N+](=O)[O-])ccc3C[C@@H]2C(=O)NO)cc1`, it took 0.008 µM to reach half-maximal inhibition (IC50). The molecule `COc1ccc(S(=O)(=O)N2Cc3cc(O)ccc3C[C@@H]2C(=O)NO)cc1` showed an IC50 of 0.001 µM.

`CC(C)(C)OC(=O)Nc1ccc2c(c1)C[C@H](C(=O)C(=O)O)N(S(=O)(=O)c1ccc(-c3ccc(F)cc3)cc1)C2` came in with an IC50 of 0.03 µM. As to `COc1ccc(S(=O)(=O)N2Cc3ccccc3C[C@@H]2C(=O)NO)cc1`, the IC50 worked out at 0.004 µM.

In turn, `COc1ccc(S(=O)(=O)N2Cc3cc(N)ccc3C[C@@H]2C(=O)C(=O)O)cc1` displayed an IC50 of 2 µM. The result for `O=C(NO)[C@H]1Cc2ccccc2CN1S(=O)(=O)Cc1ccc(-c2ccccn2)s1` reads 0.002 µM; that for `COc1ccc(S(=O)(=O)N2Cc3ncn(C)c3C[C@@H]2C(=O)NO)cc1`, 0.003 µM; that for `CCCCCCCCCCCCCCCCS(=O)(=O)N1Cc2ccccc2C[C@@H]1C(=O)NO`, 3 µM. The molecule `O=C(NO)[C@H]1Cc2ccccc2CN1S(=O)(=O)Cc1ccccc1` had an IC50 of 3 µM.

`COC(=O)c1csc(S(=O)(=O)N2Cc3ccccc3C[C@@H]2C(=O)NO)c1OC` showed a half-maximal inhibitory concentration (IC50) of 0.08 µM. Regarding `COc1ccc(S(=O)(=O)N2Cc3cc(NC(=O)CCC(=O)O)ccc3C[C@@H]2C(=O)NO)cc1`, the midpoint of inhibition, the IC50, lay at 0.04 µM. `COc1ccc(OC(=O)Nc2cccc(S(=O)(=O)N3Cc4ccccc4C[C@@H]3C(=O)NO)c2)cc1`: the IC50 is 0.2 µM. Against the preceding molecule, the IC50 is about 5-fold higher. The result for `O=C(O)C(=O)[C@H]1Cc2ccc([N+](=O)[O-])cc2CN1S(=O)(=O)c1ccc(-c2ccc(F)cc2)cc1` reads 0.04 µM; that for `O=C(O)C(=O)[C@H]1Cc2ccccc2CN1S(=O)(=O)c1ccc(-c2ccc(Cl)cc2)cc1`, 0.005 µM. Consider `O=C(NO)[C@H]1Cc2ccccc2CN1S(=O)(=O)c1cc(S(=O)(=O)c2ccccc2)cs1`, for which the concentration for half-maximal inhibition (IC50) worked out at 2 µM.

`CN(C)c1ccc(-c2ccc(S(=O)(=O)N3Cc4ccccc4C[C@@H]3C(=O)NO)cc2)cc1` came in with an IC50 of 0.002 µM. The result for `O=C(O)C(=O)[C@H]1Cc2cc([N+](=O)[O-])ccc2CN1S(=O)(=O)c1ccc(-c2ccc(Cl)cc2)cc1` reads 0.02 µM; that for `O=C(NO)[C@H]1Cc2ccccc2CN1S(=O)(=O)c1cc(Br)c(Br)s1`, 0.5 µM; that for `COc1ccc(S(=O)(=O)N2Cc3cc(NC(=O)[C@H](C)NC(=O)OC(C)(C)C)ccc3C[C@H]2C(=O)NO)cc1`, 0.002 µM. In the case of `COc1ccc(S(=O)(=O)N2Cc3cc(NC(=O)[C@H](C)N)ccc3C[C@H]2C(=O)C(=O)O)cc1` it was 2 µM; in that of `COc1ccc(S(=O)(=O)N2Cc3cc(NC(=O)OC(C)(C)C)ccc3C[C@@H]2C(=O)NO)cc1`, 0.003 µM; in that of `O=C(NO)[C@H]1Cc2ccccc2CN1S(=O)(=O)c1ccc(C(F)(F)F)cc1`, 0.05 µM. In the case of `O=C(NO)[C@H]1Cc2ccccc2CN1S(=O)(=O)c1ccc(-c2ccc(Cl)cc2)cc1` it was 0.003 µM; in that of `CN(C)c1ccc(Oc2ccc(S(=O)(=O)N3Cc4ccccc4C[C@@H]3C(=O)C(=O)O)cc2)cc1`, 0.03 µM. `Nc1ccc2c(c1)CN(S(=O)(=O)c1ccc(-c3ccc(Cl)cc3)cc1)[C@@H](C(=O)C(=O)O)C2` gave an IC50 of 0.007 µM. In the case of `O=C(Nc1cccc(S(=O)(=O)N2Cc3ccccc3C[C@@H]2C(=O)NO)c1)c1ccccc1O` it was 0.2 µM; in that of `O=C(NO)[C@H]1Cc2ccccc2CN1S(=O)(=O)c1ccc(OCc2ccc(F)cc2)cc1`, 0.002 µM; in that of `O=C(O)C(=O)[C@H]1Cc2ccccc2CN1S(=O)(=O)c1ccc(-n2nccn2)cc1`, 0.09 µM. The result for `O=C(NCc1csc(S(=O)(=O)N2Cc3ccccc3C[C@@H]2C(=O)NO)c1)c1ccccc1` reads 0.8 µM; that for `COc1ccc(S(=O)(=O)N2Cc3ccccc3C[C@H]2C(=O)NO)cc1`, 1 µM. Regarding `COc1ccc(S(=O)(=O)N2Cc3ncn(C)c3C[C@@H]2C(=O)O)cc1`, the IC50 came out at 10 µM. Consider `CC(C)(C)OC(=O)Nc1ccc2c(c1)CN(S(=O)(=O)c1ccc(-c3ccc(F)cc3)cc1)[C@@H](C(=O)NO)C2`, for which inhibition was half-maximal at 0.01 µM (IC50). In the case of `O=C(O)C(=O)C1Cc2ccccc2CN1S(=O)(=O)c1ccc(-c2ccc(Cl)cc2)cc1` (single isomer, unassigned) it was 3 µM; in that of `CN(C)c1ccc(-c2ccc(S(=O)(=O)N3Cc4ccccc4C[C@@H]3C(=O)C(=O)O)cc2)cc1`, 0.001 µM; in that of `Nc1ccc2c(c1)CN(S(=O)(=O)c1ccc(-c3ccc(F)cc3)cc1)[C@@H](C(=O)NO)C2`, 0.002 µM. In the case of `CC(=O)Nc1ccc(S(=O)(=O)N2Cc3ccccc3C[C@@H]2C(=O)NO)cc1`, the IC50 was 0.1 µM. The result for `O=C(NO)[C@H]1Cc2ccccc2CN1S(=O)(=O)c1ccc2ccccc2c1` reads 0.07 µM. The result for `O=C(NO)[C@H]1Cc2ccccc2CN1S(=O)(=O)c1ccc(-c2ccccc2)cc1` reads 0.002 µM; that for `CCOC(=O)Nc1ccc(S(=O)(=O)N2Cc3ccccc3C[C@@H]2C(=O)NO)cc1`, 0.03 µM; that for `O=C(O)C(=O)[C@H]1Cc2ccccc2CN1S(=O)(=O)c1ccc(-c2nc3ccccc3o2)cc1`, 0.08 µM.

Take `O=C(NO)[C@H]1Cc2ccccc2CN1S(=O)(=O)c1ccc(N2CCOCC2)cc1`: it took 0.1 µM to reach half-maximal inhibition (IC50). `N#Cc1ccc(Oc2ccc(S(=O)(=O)N3Cc4ccccc4C[C@@H]3C(=O)C(=O)O)cc2)cc1` returned an IC50 of 0.01 µM. This IC50 lies about 10-fold lower than the previous one. In the case of `O=C(O)C(=O)[C@H]1Cc2ccccc2CN1S(=O)(=O)CCc1ccc(-c2ccccc2)cc1` it was 0.02 µM.
